Converted amounts (≈) assume the structure as drawn. One block for each molecule: values may come before it.
Experiments:
Assay in all cases: ≥ marks a high value that may be exact or a test limit, other limits are often not marked, values filed in µg/mL are converted to µM
[1] = test system: Escherichia coli ATCC 25922
[2] = test system: Pseudomonas aeruginosa Ps4
Escherichia coli K-12 = test system: Escherichia coli K-12
Staphylococcus aureus = test system: Staphylococcus aureus
[3] = test system: Staphylococcus aureus USA 300
Streptococcus mutans = test system: Streptococcus mutans
[4] = test system: Micrococcus luteus CCM 144
Bacillus subtilis 168 = test system: Bacillus subtilis 168
Escherichia coli B = test system: Escherichia coli B
Pseudomonas aeruginosa = test system: Pseudomonas aeruginosa
[5] = test system: Candida albicans F7-39/IDE99
[6] = test system: Staphylococcus aureus ATCC 6538
[7] = test system: Pseudomonas aeruginosa ATCC 27853

MIC [1]: > 163 µM
MIC [2]: ≥ 163 µM
SMILES: CCC(C)C(NC(=O)C(CC(N)=O)NC(=O)C(CCCN=C(N)N)NC(=O)C(CCC(N)=O)NC(=O)C(Cc1c[nH]c2ccccc12)NC(=O)C(CCC(N)=O)NC(=O)C(N)Cc1ccccc1)C(=O)NC(CCCN=C(N)N)C(=O)NC(CCCCN)C(=O)NC(C(=O)NC(CCCN=C(N)N)C(N)=O)C(C)C (stereo not given) [FQWQRNIRKVR]

MIC (Escherichia coli K-12): ≥ 100 µM
MIC (Staphylococcus aureus): 130 µM (≈ 211 µg/mL)
MIC [3]: ≥ 50 µM
SMILES: CC[C@H](C)[C@H](NC(=O)[C@H](CC(C)C)NC(=O)[C@@H]1CCCN1C(=O)[C@H](Cc1ccccc1)NC(=O)[C@H](CC(C)C)NC(=O)[C@@H](N)Cc1ccccc1)C(=O)N[C@H](C(=O)N[C@@H](CO)C(=O)N[C@@H](Cc1ccccc1)C(=O)N[C@@H](CC(C)C)C(=O)N[C@@H](CO)C(=O)N[C@@H](CCCCN)C(=O)N[C@H](C(=O)N[C@@H](CC(C)C)C(=O)O)C(C)C)[C@@H](C)O [FLFPLITSFLSKVL]

MIC [2]: ≥ 176 µM
SMILES: CC[C@H](C)[C@H](NC(=O)[C@H](CC(N)=O)NC(=O)[C@H](CCCN=C(N)N)NC(=O)[C@H](CCC(N)=O)NC(=O)[C@H](Cc1c[nH]c2ccccc12)NC(=O)[C@@H](N)Cc1ccccc1)C(=O)N[C@@H](CCCN=C(N)N)C(=O)N[C@@H](CCCCN)C(=O)N[C@@H](CC(C)C)C(=O)N[C@@H](CCCN=C(N)N)C(N)=O [FWQRNIRKLR]

MIC (Streptococcus mutans): 4.28 µM (≈ 16 µg/mL)
SMILES: CC(C)C[C@H](NC(=O)[C@H](CC(C)C)NC(=O)[C@H](Cc1cnc[nH]1)NC(=O)[C@H](Cc1cnc[nH]1)NC(=O)[C@H](CC(C)C)NC(=O)[C@H](CCCCN)NC(=O)[C@H](CCCCN)NC(=O)[C@H](CC(C)C)NC(=O)[C@H](CC(C)C)NC(=O)[C@H](CCCN=C(N)N)NC(=O)[C@H](CCCN=C(N)N)NC(=O)[C@H](Cc1c[nH]c2ccccc12)NC(=O)[C@H](CCCN=C(N)N)NC(=O)CNC(=O)CNC(=O)CNC(=O)[C@H](Cc1ccccc1)NC(=O)[C@H](CCCN=C(N)N)NC(=O)[C@H](CCCN=C(N)N)NC(=O)[C@H](Cc1ccccc1)NC(=O)[C@H](Cc1c[nH]c2ccccc12)NC(=O)[C@H](CCCCN)NC(=O)[C@H](Cc1c[nH]c2ccccc12)NC(=O)[C@H](Cc1ccccc1)NC(=O)[C@H](CCCCN)NC(=O)[C@H](CCCCN)NC(=O)[C@@H](N)Cc1ccccc1)C(=O)N[C@@H](Cc1cnc[nH]1)C(N)=O [FKKFWKWFRRFGGGRWRRLLKKLHHLLH]

MIC [2]: ≥ 176 µM
SMILES: CC[C@H](C)[C@H](NC(=O)[C@H](CCCCN)NC(=O)[C@H](CCCN=C(N)N)NC(=O)[C@@H](NC(=O)[C@H](CC(N)=O)NC(=O)[C@H](CCCN=C(N)N)NC(=O)[C@H](CCC(N)=O)NC(=O)[C@H](Cc1c[nH]c2ccccc12)NC(=O)[C@@H](N)Cc1ccccc1)[C@@H](C)CC)C(=O)N[C@@H](CCCN=C(N)N)C(N)=O [FWQRNIRKIR]

MIC (Streptococcus mutans): 16.7 µM (≈ 22.6 µg/mL)
SMILES: CC(C)C[C@H](NC(=O)[C@H](CCCCN)NC(=O)[C@H](CCCCN)NC(=O)[C@@H](N)C(C)C)C(=O)N[C@@H](C)C(=O)N[C@@H](CCCCN)C(=O)N[C@@H](CC(C)C)C(=O)N[C@H](C(=O)N[C@@H](CCCN=C(N)N)C(=O)N[C@@H](CCCN=C(N)N)C(=O)N[C@@H](Cc1ccccc1)C(N)=O)C(C)C [VKKLAKLVRRF]

MIC (Streptococcus mutans): ≥ 198 µM
SMILES: CC(C)C[C@H](NC(=O)[C@H](C)NC(=O)[C@H](CCC(=O)O)NC(=O)[C@H](CCCCN)NC(=O)[C@H](C)NC(=O)[C@H](CCC(=O)O)NC(=O)[C@H](Cc1cnc[nH]1)NC(=O)[C@H](CC(C)C)NC(=O)[C@H](C)NC(=O)[C@@H](N)CCCN=C(N)N)C(=O)N[C@@H](CCCCN)C(=O)O [RALHEAKEALK]

MIC [4]: 2.2 µM (≈ 3.09 µg/mL)
MIC (Bacillus subtilis 168): 1.6 µM (≈ 2.25 µg/mL)
MIC (Escherichia coli B): 3.8 µM (≈ 5.34 µg/mL)
MIC (Pseudomonas aeruginosa): 40 µM (≈ 56.2 µg/mL)
MIC (Staphylococcus aureus): 6.7 µM (≈ 9.41 µg/mL)
MIC [5]: 6.7 µM (≈ 9.41 µg/mL)
SMILES: CC(C)C[C@H](NC(=O)[C@H](C)NC(=O)CNC(=O)[C@H](Cc1c[nH]c2ccccc12)NC(=O)[C@H](CC(N)=O)NC(=O)[C@@H](N)CC(C)C)C(=O)N[C@@H](CC(C)C)C(=O)N[C@@H](CCCCN)C(=O)N[C@@H](Cc1cnc[nH]1)C(=O)N[C@@H](CC(C)C)C(=O)N[C@@H](CC(C)C)C(=O)N[C@@H](CCCCN)C(N)=O [LNWGALLKHLLK]

MIC (Escherichia coli K-12): ≥ 60 µM
MIC [3]: ≥ 120 µM
SMILES: CC[C@H](C)[C@H](NC(=O)[C@H](CCCCN)NC(=O)[C@H](CCC(N)=O)NC(=O)[C@@H](NC(=O)[C@@H](NC(=O)[C@H](CCCCN)NC(=O)[C@H](CCCCN)NC(=O)[C@H](Cc1ccccc1)NC(=O)[C@H](CCC(=O)O)NC(=O)CN)[C@@H](C)CC)C(C)C)C(=O)N[C@@H](CCCCN)C(=O)N[C@@H](CC(=O)O)C(=O)N[C@@H](Cc1ccccc1)C(=O)N[C@@H](CC(C)C)C(=O)N[C@@H](CCCCN)C(=O)N[C@@H](CC(N)=O)C(=O)N[C@@H](CC(C)C)C(=O)N[C@H](C(N)=O)C(C)C [GEFKKIVQKIKDFLKNLV]

MIC [2]: ≥ 182 µM
SMILES: CC[C@H](C)[C@H](NC(=O)[C@H](CCCN=C(N)N)NC(=O)[C@@H](NC(=O)[C@H](CC(N)=O)NC(=O)[C@H](CCCN=C(N)N)NC(=O)CNC(=O)[C@H](Cc1c[nH]c2ccccc12)NC(=O)[C@@H](N)Cc1ccccc1)[C@@H](C)CC)C(=O)N[C@@H](CCCN=C(N)N)C(=O)N[C@@H](CCCN=C(N)N)C(N)=O [FWGRNIRIRR]

MIC [6]: > 6 µM
MIC (Escherichia coli K-12): 3 µM (≈ 8.01 µg/mL)
MIC [7]: > 3 µM
SMILES: CC[C@H](C)[C@H](NC(=O)[C@H](CCCCN)NC(=O)[C@H](CC(N)=O)NC(=O)[C@H](CCCN=C(N)N)NC(=O)[C@@H](NC(=O)[C@H](CC(N)=O)NC(=O)[C@H](CCCN=C(N)N)NC(=O)[C@@H](NC(=O)[C@H](CCSC)NC(=O)[C@H](CCCCN)NC(=O)[C@H](CCC(=O)O)NC(=O)[C@@H](NC(=O)[C@H](CCCCN)NC(=O)[C@H](CCCCN)NC(=O)[C@H](Cc1ccccc1)NC(=O)[C@@H](NC(=O)[C@H](CCCCN)NC(=O)[C@H](Cc1c[nH]c2ccccc12)NC(=O)[C@@H](N)CCCCN)C(C)C)[C@@H](C)CC)[C@@H](C)CC)[C@@H](C)CC)C(=O)N[C@@H](C)C(=O)N[C@@H](CCCCN)C(N)=O [KWKVFKKIEKMIRNIRNKIAK]

MIC [2]: ≥ 161 µM
SMILES: NC(=O)CC[C@H](NC(=O)[C@H](Cc1c[nH]c2ccccc12)NC(=O)[C@@H](N)Cc1ccccc1)C(=O)N[C@@H](CCCN=C(N)N)C(=O)N[C@@H](CC(N)=O)C(=O)N[C@@H](Cc1c[nH]c2ccccc12)C(=O)N[C@@H](CCCN=C(N)N)C(=O)N[C@@H](Cc1ccccc1)C(=O)N[C@@H](CCCN=C(N)N)C(=O)N[C@@H](CCCN=C(N)N)C(N)=O [FWQRNWRFRR]

MIC [2]: ≥ 173 µM
SMILES: CC[C@H](C)[C@H](NC(=O)[C@H](CC(N)=O)NC(=O)[C@H](CCCN=C(N)N)NC(=O)[C@H](C)NC(=O)[C@H](Cc1c[nH]c2ccccc12)NC(=O)[C@@H](NC(=O)[C@@H](N)Cc1ccccc1)C(C)C)C(=O)N[C@@H](CCCN=C(N)N)C(=O)N[C@@H](CCCCN)C(=O)N[C@H](C(=O)N[C@@H](CCCN=C(N)N)C(N)=O)C(C)C [FVWARNIRKVR]

MIC [4]: ≥ 38.8 µM
MIC (Bacillus subtilis 168): ≥ 55.8 µM
MIC (Escherichia coli B): ≥ 100 µM
MIC (Pseudomonas aeruginosa): > 100 µM
MIC (Staphylococcus aureus): > 100 µM
MIC [5]: ≥ 50 µM
SMILES: CC[C@H](C)[C@H](NC(=O)[C@H](Cc1cnc[nH]1)NC(=O)[C@H](CCCCN)NC(=O)[C@H](CC(C)C)NC(=O)[C@H](CCCCN)NC(=O)[C@H](C)NC(=O)CNC(=O)[C@H](Cc1c[nH]c2ccccc12)NC(=O)[C@H](CC(N)=O)NC(=O)[C@@H](N)CC(C)C)C(=O)N[C@H](C(=O)N[C@@H](CCCCN)C(N)=O)[C@@H](C)CC [LNWGAKLKHIIK]

MIC [2]: ≥ 184 µM
SMILES: CC[C@H](C)[C@H](NC(=O)[C@H](CC(N)=O)NC(=O)[C@H](CCCN=C(N)N)NC(=O)[C@H](CCC(N)=O)NC(=O)[C@H](Cc1c[nH]c2ccccc12)NC(=O)[C@@H](N)Cc1ccccc1)C(=O)N[C@@H](Cc1c[nH]c2ccccc12)C(=O)N[C@@H](CCCN=C(N)N)C(=O)N[C@@H](CCCN=C(N)N)C(N)=O [FWQRNIWRR]

MIC (Escherichia coli K-12): 10 µM (≈ 21 µg/mL)
MIC [3]: ≥ 160 µM
SMILES: CC(C)C[C@H](NC(=O)CN)C(=O)N[C@@H](CCCCN)C(=O)N[C@@H](CCCCN)C(=O)N[C@@H](CC(C)C)C(=O)N[C@@H](CC(C)C)C(=O)NCC(=O)N[C@@H](CCCCN)C(=O)N[C@@H](CC(C)C)C(=O)N[C@@H](CC(C)C)C(=O)N[C@@H](CCCCN)C(=O)N[C@@H](CCCCN)C(=O)N[C@@H](CC(C)C)C(=O)NCC(=O)N[C@@H](CCCCN)C(=O)N[C@@H](CC(C)C)C(=O)N[C@@H](CC(C)C)C(=O)N[C@@H](CC(C)C)C(=O)N[C@@H](CCCCN)C(=O)O [GLKKLLGKLLKKLGKLLLK]

MIC (Streptococcus mutans): ≥ 73.1 µM
SMILES: NC(=O)[C@H](Cc1ccccc1)NC(=O)[C@H](CCCN=C(N)N)NC(=O)[C@H](Cc1cnc[nH]1)NC(=O)[C@H](Cc1ccccc1)NC(=O)[C@H](Cc1c[nH]c2ccccc12)NC(=O)[C@H](Cc1cnc[nH]1)NC(=O)[C@H](Cc1c[nH]c2ccccc12)NC(=O)[C@H](Cc1ccccc1)NC(=O)[C@H](Cc1ccc(O)cc1)NC(=O)[C@H](Cc1cnc[nH]1)NC(=O)[C@@H](N)Cc1ccccc1 [FHYFWHWFHRF]

MIC [4]: 30 µM (≈ 42.6 µg/mL)
MIC (Bacillus subtilis 168): ≥ 41.7 µM
MIC (Escherichia coli B): ≥ 100 µM
MIC (Pseudomonas aeruginosa): > 100 µM
MIC (Staphylococcus aureus): > 100 µM
MIC [5]: ≥ 100 µM
SMILES: CC[C@H](C)[C@H](NC(=O)[C@H](C)NC(=O)CNC(=O)[C@H](Cc1c[nH]c2ccccc12)NC(=O)[C@H](CC(N)=O)NC(=O)[C@@H](N)CC(C)C)C(=O)N[C@@H](CC(C)C)C(=O)N[C@@H](CCCCN)C(=O)N[C@@H](Cc1cnc[nH]1)C(=O)N[C@@H](CCCCN)C(=O)N[C@H](C(=O)N[C@@H](CCCCN)C(N)=O)[C@@H](C)CC [LNWGAILKHKIK]

Source: DBAASP
